Some test systems named below: COLO 205; EKVX; HCT-15; Hs-578T; IGROV-1; MCF7; NCI-H23; OVCAR-3; OVCAR-5; PC-3; RPMI-8226; SF-268; SK-MEL-5; SNB-19; SNB-75; T47D; UO-31; A498; SF-539; SR.
Holding throughout (test): growth of human tumour cells (NCI), 48 h

Structures are written as SMILES.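 Tested at 5 concentrations; 48 h exposure; 96-well plates; endpoints linearly interpolated, else capped at highest concentration. At the GI50, growth is halved.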 Calls of active or inactive are those of the source. Rule as the data show it: active = GI50 up to about 1.1 µM and inactive = higher. Bounds are passed on as bounds.

As to `N#C/C(=N/Nc1[nH]cnc1C(N)=O)C(=O)Nc1ccccc1`, the GI50 with COLO 205 is 16.5 µM (inactive); in the assay with EKVX, 65.5 µM (inactive); in the assay on HCT-15 it was 35.5 µM; with Hs-578T, 67.8 µM (inactive); in the assay on IGROV-1, 4.55 µM (inactive); in the assay with MCF7 it was 54 µM (inactive). Besides, the GI50 with NCI-H23 was 56.8 µM (inactive); in the assay on OVCAR-3, 5.41 µM (inactive); in the assay on OVCAR-5, 34.6 µM (inactive); in the assay with PC-3, 7.89 µM (inactive); with RPMI-8226, 2.16 µM (inactive); with SF-268, 8.17 µM (inactive). For the same compound, the GI50 with SK-MEL-5 was 58.5 µM (inactive); in the assay on SNB-19, > 100 µM (inactive); in the assay on SNB-75 it was 24.5 µM (inactive); in the assay with T47D, 56.6 µM (inactive); with UO-31, 3.43 µM (inactive).

Take `COc1ccc(/C(Cl)=C(\CNc2ccccn2)c2ccccc2)cc1OC`: the GI50 was > 100 µM (inactive) in the assay with A498; > 100 µM (inactive) in the assay with COLO 205; > 100 µM (inactive) in the assay with EKVX; above 100 µM in the assay with HCT-15; > 100 µM (inactive) in the assay on Hs-578T; > 100 µM (inactive) with IGROV-1. Besides, the GI50 with NCI-H23, in the assay on OVCAR-5, in the assay with PC-3, in the assay with RPMI-8226, with SF-268 and in the assay on SF-539 was > 100 µM (inactive) throughout. For the same compound, the GI50 in the assay with SK-MEL-5, in the assay on SNB-19, with SNB-75, with SR, in the assay with T47D and in the assay on UO-31 was > 100 µM (inactive) throughout.

As for `CCNC12CCC(C1)C(C)(C)C2=O` (stereo not drawn), the GI50 with A498 is > 100 µM (inactive); with COLO 205, > 100 µM (inactive); with EKVX, > 100 µM (inactive); in the assay on HCT-15, above 100 µM; in the assay on IGROV-1, > 100 µM (inactive); in the assay with MCF7 it was > 100 µM (inactive). Further, the GI50 with NCI-H23, in the assay on OVCAR-3, in the assay with OVCAR-5, in the assay on PC-3, in the assay on RPMI-8226 and with SK-MEL-5 was > 100 µM (inactive) each time. In addition, the GI50 with SNB-19, in the assay on SNB-75, in the assay with SR, in the assay on T47D and in the assay on UO-31 was > 100 µM (inactive) each time.

Take `COc1cc(OC)cc(-n2c(N)c(-c3nc4ccccc4n3C)c3ccc([N+](=O)[O-])cc3c2=O)c1`: the GI50 was > 100 µM (inactive) in the assay with A498; > 100 µM (inactive) with COLO 205; above 100 µM with HCT-15; 26.4 µM (inactive) in the assay on Hs-578T; > 100 µM (inactive) with NCI-H23; > 100 µM (inactive) in the assay with PC-3. The GI50 in the assay with RPMI-8226 was > 100 µM (inactive); in the assay on SF-268 it was 55.5 µM (inactive); with SK-MEL-5, > 100 µM (inactive); in the assay on SNB-19, 40.6 µM (inactive); with SNB-75, 2.02 µM (inactive); with T47D it was > 100 µM (inactive). For the same compound, in the assay on UO-31, the GI50 was > 100 µM (inactive).

For `Cc1ccc(S(=O)(=O)N2CCCN(S(=O)(=O)c3ccc(C)cc3)CCN(S(=O)(=O)c3ccc(C)cc3)CCCSCC2)cc1`, the GI50 with A498, in the assay with COLO 205, in the assay with EKVX, in the assay on Hs-578T, in the assay on IGROV-1 and in the assay on MCF7 was > 100 µM (inactive) throughout. Moreover, the GI50 in the assay on NCI-H23, with OVCAR-3, with OVCAR-5, in the assay on RPMI-8226, in the assay on SF-268 and in the assay with SF-539 was > 100 µM (inactive) throughout. For the same compound, the GI50 with SK-MEL-5, in the assay with SNB-19, in the assay with SNB-75, in the assay with T47D and in the assay on UO-31 was > 100 µM (inactive) throughout.

As to `O=C(CC(c1ccccc1)C(C(=O)c1ccncc1)C(CC(=O)c1ccncc1)c1ccccc1)c1ccncc1` (stereo not drawn), the GI50 in the assay on A498 is 71.8 µM (inactive); with COLO 205, > 100 µM (inactive); in the assay with EKVX it was 34.6 µM (inactive); with HCT-15, above 100 µM; in the assay with Hs-578T it was 30 µM (inactive); in the assay with IGROV-1, 28.4 µM (inactive). For the same compound, the GI50 was 35 µM (inactive) with NCI-H23; 75.9 µM (inactive) in the assay on OVCAR-3; > 100 µM (inactive) in the assay with OVCAR-5; 46.2 µM (inactive) with PC-3; > 100 µM (inactive) in the assay on RPMI-8226; 32.4 µM (inactive) in the assay with SF-268. For the same compound, the GI50 is > 10 µM (inactive) in the assay with SK-MEL-5; 39 µM (inactive) in the assay on SNB-19; 23.7 µM (inactive) with SNB-75; > 100 µM (inactive) with SR; 29.4 µM (inactive) in the assay with T47D; > 100 µM (inactive) in the assay with UO-31.

Consider `CCOC(=O)/C=C/c1cccc(F)c1`, for which the GI50 in the assay with A498 is > 100 µM (inactive); in the assay on COLO 205, > 100 µM (inactive); with EKVX it was > 100 µM (inactive); in the assay on HCT-15, above 100 µM; in the assay with IGROV-1 it was > 100 µM (inactive); in the assay with MCF7, > 100 µM (inactive). Also, the GI50 in the assay with NCI-H23, in the assay on OVCAR-5, in the assay on PC-3, in the assay on RPMI-8226, in the assay on SF-268 and in the assay with SF-539 was > 100 µM (inactive) throughout. In addition, the GI50 in the assay on SNB-19, with SNB-75, in the assay on SR, with T47D and in the assay with UO-31 was > 100 µM (inactive) each time.

`O=C(NNC(=O)c1c(Cl)c(Cl)c(Cl)c(Cl)c1-c1nc2ccccc2[nH]1)c1ccc(Cl)cc1`: the GI50 with A498 is 54.5 µM (inactive); in the assay on COLO 205, 32.1 µM (inactive); in the assay on EKVX it was 44.2 µM (inactive); with HCT-15, 34.4 µM; with IGROV-1, 17.5 µM (inactive); in the assay on MCF7, 34.9 µM (inactive). Moreover, the GI50 in the assay on NCI-H23 is 40.6 µM (inactive); in the assay on OVCAR-3, 65.2 µM (inactive); in the assay on OVCAR-5, > 100 µM (inactive); with PC-3, 55 µM (inactive); with RPMI-8226, 33 µM (inactive); in the assay with SF-268, > 100 µM (inactive). Moreover, the GI50 in the assay with SF-539 is 47.4 µM (inactive); in the assay with SK-MEL-5, 38.3 µM (inactive); with SNB-19, 68.5 µM (inactive); with SNB-75, 38.5 µM (inactive); in the assay on SR it was 33.8 µM (inactive); with T47D, 21.7 µM (inactive). In the assay on UO-31, the GI50 was 30.3 µM (inactive).

For the compound `Cc1cc(C)nc(SCCc2cccc[n+]2C)n1`, the GI50 in the assay with A498 is 60.7 µM (inactive); with COLO 205 it was > 100 µM (inactive); in the assay on EKVX it was 24.9 µM (inactive); in the assay with HCT-15, above 100 µM; in the assay on Hs-578T, > 100 µM (inactive); in the assay with IGROV-1, > 100 µM (inactive). Further, the GI50 in the assay with MCF7 was > 100 µM (inactive); with NCI-H23, > 100 µM (inactive); in the assay with OVCAR-3, > 100 µM (inactive); with OVCAR-5, 36.1 µM (inactive); with PC-3 it was > 100 µM (inactive); in the assay with RPMI-8226 it was > 100 µM (inactive). In addition, the GI50 in the assay on SF-268, in the assay with SK-MEL-5, in the assay with SNB-19, in the assay with SNB-75, in the assay with T47D and with UO-31 was > 100 µM (inactive) each time.

`Cc1c(O)nc(-n2[nH]c3c(c2=O)CCCC3)[nH]c1=O`: the GI50 was > 100 µM (inactive) in the assay on A498; > 100 µM (inactive) in the assay on COLO 205; > 100 µM (inactive) with EKVX; above 100 µM with HCT-15; > 100 µM (inactive) in the assay on Hs-578T; > 100 µM (inactive) in the assay with IGROV-1. Moreover, the GI50 in the assay on NCI-H23, with OVCAR-5, with PC-3, with RPMI-8226, with SF-268 and in the assay with SK-MEL-5 was > 100 µM (inactive) in each case. Further, the GI50 with SNB-19, in the assay with SR, in the assay with T47D and in the assay on UO-31 was > 100 µM (inactive) each time.

`CCc1cc2c(cc1O)CC[C@@H]1[C@@H]2CC[C@]2(C)[C@@H](O)CC[C@@H]12`: the GI50 in the assay on A498 is 18.7 µM (inactive); with COLO 205, 17.5 µM (inactive); in the assay on EKVX it was 9.71 µM (inactive); with HCT-15, 4.83 µM; in the assay with IGROV-1, 11.2 µM (inactive); in the assay on MCF7, 3.63 µM (inactive). In addition, the GI50 in the assay on NCI-H23 was 7.14 µM (inactive); with OVCAR-5, 20.3 µM (inactive); in the assay with PC-3 it was 12.2 µM (inactive); in the assay on SF-268, 6.41 µM (inactive); in the assay on SK-MEL-5, 7.11 µM (inactive); in the assay with SNB-19 it was 6.34 µM (inactive). Besides, the GI50 is 1.9 µM (inactive) with SNB-75, 3.08 µM (inactive) in the assay with SR, 7.48 µM (inactive) in the assay with T47D and 9.08 µM (inactive) with UO-31.

For `N#Cc1c(O)c(/N=N/c2ccccc2F)c(=O)n2c1[nH]c1ccccc12`, the GI50 is 60.5 µM (inactive) with A498; 55.1 µM (inactive) with COLO 205; > 100 µM (inactive) in the assay on EKVX; 37.2 µM in the assay with HCT-15; 15.4 µM (inactive) in the assay on Hs-578T; 74.8 µM (inactive) in the assay with IGROV-1. The GI50 is 32.7 µM (inactive) with MCF7; 38.2 µM (inactive) in the assay on NCI-H23; 36 µM (inactive) with OVCAR-3; 34 µM (inactive) with OVCAR-5; 30.3 µM (inactive) with PC-3; 32.4 µM (inactive) with SF-268. Further, the GI50 in the assay on SF-539 was > 100 µM (inactive); with SK-MEL-5 it was 42 µM (inactive); with SNB-19, 48.1 µM (inactive); with SNB-75, 30.4 µM (inactive); in the assay on UO-31, 29.3 µM (inactive).

The values above are taken from ChEMBL document CHEMBL1201862, “PubChem BioAssay data set” (2004).
